Reference: BigSolDB 2.1

OC(Cc1ccccc1Cl)(Cn1[nH]cnc1=S)C1(Cl)CC1 (centres undefined)
solubility (mole fraction)
Conditions	in acetonitrile	in isopropanol	in methanol	in n-butanol	in n-propanol	in sec-butanol	in toluene
283.15 K	0.00629	0.0115	0.01	0.0147	0.0125	0.00735	0.00196
288.15 K	0.008	0.0142	0.0127	0.018	0.0161	0.00954	0.00287
293.15 K	0.0103	0.0176	0.0154	0.0215	0.0199	0.0124	0.00368
298.15 K	0.0126	0.0215	0.019	0.0268	0.0248	0.0152	0.00481
303.15 K	0.0171	0.0268	0.0232	0.0327	0.0305	0.0191	0.00574
308.15 K	0.0214	0.0331	0.0307	0.0417	0.0373	0.0259	0.00782
313.15 K	0.0254	0.0385	0.0371	0.0513	0.0465	0.0321	0.0101
